Values quoted from earlier work in patent US20140271931A1, “Anti-Acne Topical Films” (Perosphere Inc., priority 2013, published 2014).

What was measured:
[1] = test system: cultured normal and transformed mammalian cells

| solubility in water | Compound | penetration of the cell interior compared with picolinic acid (cell interior) | inhibition of growth of cultured normal and transformed mammalian cells [1] |
| --- | --- | --- | --- |
| – | CCCCc1ccc(C(=O)O)nc1 [Fusaric acid] | penetrates the cell interior much more easily than picolinic acid | – |
| readily soluble in water | O=C(O)c1ccccn1 [Picolinic acid, 2-pyridine carboxylic acid] | – | inhibits the growth |
